The values that follow come from patent US8148070B2, “Genetic polymorphisms associated with coronary events and drug response, methods of detection and uses thereof” (Celera Corporation, priority 2007, dated 2012).

This assay deals with WOSCOPS patients. Briefly: WOSCOPS nested case-control study: pravastatin vs placebo, primary CHD in subgroups defined by genotype. The settings on record: for Case (patients with coronary event): pravastatin arm; for risk reduction (coronary events) / OR, Effect of Pravastatin on MI and CHD: pravastatin vs placebo. It counts as in vivo, human. An excerpt:
In order to identify genetic markers associated with CHD (particularly MI, including recurrent MI) or the effect of statin treatment on CHD, samples were genotyped in two clinical trials: the Cholesterol and Recurrent Events (CARE) study (a randomized multicentral double-blinded trial on secondary prevention of MI with pravastatin (Pravachol®); Sacks et al., Am. J. Cardiol. 68: 1436-1446 [1991]), and the West of Scotland Coronary Prevention Study (WOSCOPS) study (a randomized multicentral double-blinded trial on primary prevention of CHD with pravastatin (Pravachol®); Shepherd et al., N Eng J Med 333 (20), pp. 1301-7, Nov. 16, 1995; Packard et al., N Eng J Med 343 (16), pp. 1148-55, Oct. 19, 2000).
The designs of the original WOSCOPS cohort and the nested case-control study have been described (Shepherd et al., N Eng J Med 333 (20), pp. 1301-7, Nov. 16, 1995; Packard et al., N Eng J Med 343 (16), pp. 1148-55, Oct. 19, 2000). The objective of the WOSCOPS trial was to assess pravastatin efficacy at reducing risk of primary MI or coronary death among Scottish men with hypercholesterolemia (fasting LDL cholesterol>155 mg/dl). Participants in the WOSCOPS study were 45-64 years of age and followed for an average of 4.9 years for coronary events. The nested case-control study included as cases all WOSCOPS patients who experienced a coronary event (confirmed nonfatal MI, death from CHD, or a revascularization procedure; N=580). Controls were age- and smoking-matched to unaffected patients.
In analyzing the CARE patients, statistical analysis was performed with SAS version 9. Cox proportional hazard models (Wald tests) were used in CARE to assess the association of genotype with both the risk of incident MI in the placebo arm and the effect of pravastatin on MI compared to placebo in subgroups defined by genotypes. In analyzing the WOSCOPS patients, a conditional logistic regression model was used in WOSCOPS given that the controls had been previously matched to the cases. The column entitled “On-trial MI” lists the number of patients who suffered a recurrent MI during the clinical trial period.
HR stands for Hazard Ratio, which is a concept similar to Odds Ratio (OR). The HR in event-free survival analysis is the effect of an explanatory variable on the hazard or risk of an event. For examples, it describes the likelihood of developing MI based on comparison of rate of coronary events between carriers of the certain allele and noncarriers; therefore, HR=1.5 would mean that carriers of the certain allele have 50% higher risk of coronary events during the study follow up than non-carriers. HR can also describe the effect of statin therapy on coronary events based on comparison of rate of coronary events between patient treated with statin and patient treated with placebo (or other statin) in subgroups defined by SNP genotype; therefore, HR=0.5 would mean that, for example, carriers of the certain allele, had 50% reduction of coronary events by statin therapy as compared to placebo. In Table 6, p interaction values were calculated. An interaction (or effect modification) is formed when a third variable modifies the relation between an exposure and outcome. […] Genotype and drug interaction is present when the effect of statins (incidence rate of disease in statin-treated group, as compared to placebo) differs in patients with different genotypes. The hCV3054799 risk allele predicted risk of MI in CARE and was associated with odds of CHD in WOSCOPS.

With `CC[C@H](C)C(=O)O[C@H]1C[C@H](O)C=C2C=C[C@H](C)[C@H](CC[C@@H](O)C[C@@H](O)CC(=O)O)[C@H]21` [Pravastatin, pravastatin], the “OR, Adjusted (CHD, pravastatin vs placebo)” value was found to be 0.91 (AA (noncarriers), matched and adjusted); 0.50 (GG + GA (719Arg carriers), matched and adjusted for hypertension, diabetes, BMI, LDL-C, HDL-C). Further, the “OR, Matched (CHD, pravastatin vs placebo)” value is 0.94 (AA (noncarriers), matched for age and smoking); 0.50 (GG + GA (719Arg carriers), cases and controls matched for age and smoking). Further, the “Case (patients with coronary event)” value (AA, 213 controls) was 81 number of patients and the “Case (patients with coronary event)” value (GG + GA, 330 controls) is given as 108 number of patients. For the same compound, the “risk reduction (coronary events)” value runs as follows: (carriers of the KIF6 719Arg allele, significant) 50%; (noncarriers, insignificant) 9%. In addition, the “OR, Effect of Pravastatin on MI and CHD” value amounted to 0.55 (hCV3054808 genotype AA); 0.52 (hCV3054808 genotype AC); 0.89 (hCV3054808 genotype CC); 0.64 (hCV3054813 genotype CC); 0.51 (hCV3054813 genotype CT); 0.95 (hCV3054813 genotype TT). Further, the “OR, Effect of Pravastatin on MI and CHD” value reads like this: (hCV29992177 genotype AA) 0.71; (hCV29992177 genotype GA) 0.54; (hCV29992177 genotype GG) 2.55; (hCV30225864 genotype CC) 0.67; (hCV30225864 genotype CT) 0.54; (hCV30225864 genotype TT) 0.78.
